Laboratory results taken from ChEMBL document CHEMBL3108768 (ACS Med Chem Lett, 2014).

Legend:
[1] = tested on: HeLa; test: (§1) Inhibition of STX (unknown origin)-induced toxicity in human HeLa cells assessed as protection against toxin-induced inhibition of protein biosynthesis by measuring incorporation of [14C]-leucine into cells at 30 uM preincubated for 1 hr followed by toxin challenge measured after 20 hrs by liquid scintillation counting analysis relative to control; assay type: cell-based
[2] = as §1, with “cells” for “cells at 30 uM”, “analysis” for “analysis relative to control”; assay type: cell-based

Cc1nc(-c2ccc([C@@H]3N(C)c4ccc(F)cc4C(=O)N3c3ccccc3)s2)cs1
fold change (FC) [1]: 68 | EC50 [2]: 2400 nM

Cc1nc(-c2ccc([C@H]3N(C)c4ccc(F)cc4C(=O)N3c3ccccc3)s2)cs1
fold change (FC) [1]: 357 | EC50 [2]: 54 nM

Cc1nc(-c2ccc(C3N(C)c4ccc(F)cc4C(=O)N3c3ccccc3)s2)cs1 (racemic)
EC50 [2]: 102 nM

Cc1ccc(/C=N/c2ccccc2C(=O)Nc2ccccc2)s1
EC50 [2]: 27000 nM
